Measurements as given in patent US20180344725A1, “QUINOLONE CHALCONE COMPOUNDS AND USES THEREOF” (priority 2015, published 2018).

Assays:
[1] = tested on: MDA-MB-231; test: SRB-based cytotoxicity assay; assay type: cell-based, human; conditions: for IC50: Homo sapiens, MDA-MB-231, SRB, Table 2; for Cell survival rate: MDA-MB231
Protocol: (§1) For (anti)proliferation assays, 4,000-5,000 cells/well of the 96-well clustered dish were incubated for 16 hours, as described previously (Hu et al., 2008; Skehan et al., 1990). After 16 hours, culture medium was replaced with fresh medium containing different dilutions of test compounds dissolved in DMSO. Some wells were treated with 100 μl of 10% trichloroacetic acid (TCA) as a negative control and sham (medium with dimethyl sulfoxide; DMSO) treated cells were used as a positive control. After 72 hours post-incubation, medium was removed and cells were fixed with 10% TCA at 4° C. for 1 hour. TCA was removed and cells were washed with cold tap water, and plate was air-dried, followed by addition of 50 μl of 0.4% SRB staining solution to each well. After 30 minutes incubation, SRB staining solution was removed. Cells were washed with 1% acetic acid solution, and then washed with tap water to remove unbound staining solution, followed by air-drying. 200 μl of 10 mM (pH10.5) trizma base buffer was added to each well to solubilise macromolecules. SRB stained macromolecules were determined at a 540 nm wavelength using an automated plate reader (Synergy H4 Hybrid Multi-Mode Microplate Reader, BioTek, Winooski, Vt.). Cell growth (inhibition) was calculated by the following formula:
(§2) % cells proliferation=[(AT−CT)/(ST−CT)]×100
(§3) wherein AT=absorbance of treated cells, CT=absorbance of negative control cells, and ST=absorbance of sham treated cells. IC50 values were calculated from sigmoidal dose-response curves generated by two independent biological replicates, with quadruplicate in each set by using Graph Pad Prism v.5.04 software. […] The combinational index (CI) was calculated as described previously (Chou 2006). If the CI values were less than, equal to or more than 1, it indicates a synergistic, additive or antagonistic effect respectively (Chou 2006). CI values were determined from four independent experiments.

[2] = tested on: MCF-7; test: SRB-based cytotoxicity assay; assay type: cell-based, human; conditions: Homo sapiens, MCF7; MCF-7; SRB; Table 2
Protocol: as §1, §2, §3

[3] = tested on: MDA-MB-468; test: SRB-based cytotoxicity assay; assay type: cell-based, human; conditions: for IC50: Homo sapiens, MDA-MB-468, SRB, Table 2
Protocol: as §1, §2, §3

[4] = target: T1, tubulin (Sus scrofa, UniProt P02550+P02554); test: Dissociation constant of CTR-tubulin binding (tryptophan fluorescence); parameters: species or system porcine; conditions: purified tubulin 0.4 μM, 30 minutes at 37° C.
T1 construct: purchased Cytoskeleton Inc. (Denver, Colo.) T240
Protocol: Purified tubulin (0.4 μM) was dissolved in 25 mM PIPES buffer (pH 6.8) and incubated in the presence or absence of different concentrations of CTR-17 (or CTR-20) for 30 minutes at 37° C. The intrinsic fluorescence of the tryptophan residues in the tubulin heterodimers was monitored by excitation of the reaction mixture at 295 nm and the emission spectra at the 315-370 nm wavelength range. All measurements were corrected for the inner filter using the formula Fcorrected=Fobserved×antilog [(Aex+Aem)/2], where Aex and Aem are the absorbance of the reaction mixture at the excitation and emission wavelengths, respectively. Graph Pad Prism software was used to determine the dissociation constant of the CTR compounds binding to tubulin using the following formula
wherein ΔF is the changes in fluorescence intensity of tubulin when bound with the CTR compounds, ΔFmax is the maximum change in the fluorescence intensity when tubulin is bound with the compounds, C is the concentration of the CTR compounds, and Kd is the dissociation constant of the CTR compounds bound to tubulin.

[5] = tested on: tubulin (vinblastine binding site); test: BODIPY FL vinblastine competition assay; parameters: species or system porcine; conditions: 25 μM; 5 μM BODIPY FL-vinblastine
Source text: For the vinblastine competition assay, fluorescence was monitored by excitation of the reaction mixture at 490 nm and the emission spectra at the 510-550 nm range.

[6] = tested on: HeLa; test: Immunofluorescent staining: centrosomes and chromosome segregation; assay type: cell-based; conditions: for ACS (abnormal chromosome segregation) / Monopolar centrosome: 3 μM
Protocol: (§4) Cells on coverslips placed on the bottom of 35 mm tissue culture plates or 6-well clustered dishes were treated for 12-24 hours with the CTR compounds to be tested. Subsequently, the cells were fixed with 100% methanol for 15 minutes and washed with 1×PBS three times. Cells were then “blocked” with 3% BSA or 1% (v/v) FBS plus 1×PBST (1×PBS buffer containing 0.1% (v/v) Triton X-100 or 0.2% Tween 20), and incubated overnight at 4° C. with primary antibodies, with gentle agitation. Unbound primary antibodies were washed off with PBST, and a secondary antibody was added for 1 hour in the dark. Secondary antibodies were conjugated to Alexa 488 or 568. DNA was counterstained with DRAQ5 or DAPI. Subsequently, coverslips were washed three times with 1×PBST for 10 minutes each, followed by mounting them onto slides with 90% glycerol in 1×PBS. Each slide was visualized with a Carl Zeiss 510 Meta laser scanning microscope or an Axioscope. Image analysis was done with an LSM image examiner equipped with the microscopes (Carl Zeiss, Toronto, ON, Canada).
(§5) The cancer-specific increase of mitotic cells in response to CTR-17 was correlated with the accumulation of cells with monopolar centrosomes and abnormal chromosome alignment/segregation (FIG. 11, Table 5). Cells were either sham-treated or treated with 3.0 μM CTR-17 for 12 hours or 24 hours, followed by analyses of cell cycle progression, centrosome abnormalities, and chromosome alignment/segregation. […] The mitotic index was determined by fluorescence microscopic analysis of at least 200 cells for each cell type, and data was expressed as percentage mean±S.E.M. of at least two independent experiments.
(§6) Asynchronously growing cells were treated with 1 μM CTR-20 for 24 hours, followed by examining cells arrested in mitosis. The percentage of mitotic cells was calculated based on the examination of at least 250-400 cells. Cells treated with 1 μM CTR-20 for 24 hours on coverslips were fixed with ice-cold methanol, immunostained with an α-tubulin antibody, and then counterstained DNA with DRAQ5 prior to observing by florescent microscopy (Table 6). […] Similarly, cells treated with 1 μM CTR-20 accumulated monopolar centrosomes and defective chromosomal alignment and segregation in a cancer-specific manner.

[7] = tested on: MDA-MB-231; test: as above; assay type: cell-based, human; conditions: for ACS (abnormal chromosome segregation) / Monopolar centrosome: MDA-MB-231, 3 μM
Protocol: as §4, §5, §6

[8] = target: T2, tubulin (colchicine-binding site) (Sus scrofa, UniProt P02550+P02554); test: Colchicine competition assay; parameters: species or system porcine; conditions: colchicine 1.0-8.0 μM
T2 construct: purchased Cytoskeleton Inc. (Denver, Colo.) T240

With `COc1ccccc1C(=O)/C=C/c1cc2ccccc2[nH]c1=O` [CTR-17, (E)-3-(3-(2-Methoxyphenyl)-3-oxoprop-1-enyl)quinolin-2(1H)-one] the IC50 [1] was 410 ± 20 nM, the IC50 [2] was 520 ± 170 nM and the IC50 [3] was 150 ± 330 nM. For the same compound, the “preferentially kill cancer over non-cancer cells” value ([3]; MDA-MB-468 versus MCF-10A) was “up to 26 times”, the Kd [4] was 4580 ± 950 nM and the “binding to the vinblastine binding site on the tubulin” value [5] was “did not bind to the vinblastine binding site”. For the same compound, the “ACS (abnormal chromosome segregation)” value ([6]; 12 h post-treatment) was 20.0 ± 4.5% of total mitotic cells, the Monopolar centrosome ([6]; 12 h post-treatment) was 80.0 ± 4.5% of total mitotic cells and the “ACS (abnormal chromosome segregation)” value ([6]; 24 h post-treatment) was 0.0 ± 0.0% of total mitotic cells. The Monopolar centrosome ([6]; 24 h post-treatment) was 100.0 ± 0.0% of total mitotic cells, the “ACS (abnormal chromosome segregation)” value ([7]; 12 h post-treatment) was 60.0 ± 10.2% of total mitotic cells and the Monopolar centrosome ([7]; 12 h post-treatment) was 40.0 ± 10.2% of total mitotic cells. For the same compound, the “ACS (abnormal chromosome segregation)” value ([7]; 24 h post-treatment) was 55.1 ± 5.7% of total mitotic cells, the Monopolar centrosome ([7]; 24 h post-treatment) was 44.9 ± 5.7% of total mitotic cells and the “effect on binding of colchicine to tubulin” value [8] was “inhibited the binding of colchicine to tubulin”.

Work on `COc1ccc2[nH]c(=O)c(/C=C/C(=O)c3ccccc3OC)cc2c1` [CTR-20, (E)-6-Methoxy-3-(3-(2-methoxyphenyl)-3-oxoprop-1-enyl) quinolin-2(1H)-one] yielded an IC50 [1] of 120 ± 90 nM, a Cell survival rate ([1]; single agent 0.1 μM) of 70.86 ± 4.17 and a Cell survival rate ([1]; single agent 0.2 μM) of 41.07 ± 4.58. For the same compound, the Cell survival rate ([1]; single agent 0.4 μM) was 26.38 ± 4.73, the IC50 [2] was 140 ± 60 nM and the IC50 [3] was 120 ± 20 nM. For the same compound, the Kd [4] was 5090 ± 490 nM, the “binding to the vinblastine binding site on the tubulin” value [5] was “did not bind to the vinblastine binding site” and the “ACA/S (%) (abnormal chromosome alignment and segregation)” value ([6]; 1 μM, 24 hours) was 34.97 ± 1.96%. The “Monopolar (%)” value ([6]; 1 μM, 24 hours) was 48.13 ± 3.34%, the “ACA/S (%) (abnormal chromosome alignment and segregation)” value ([7]; MB231, 1 μM, 24 hours) was 58.05 ± 6.21% and the “Monopolar (%)” value ([7]; MB231, 1 μM, 24 hours) was 35.73 ± 5.59%. The “effect on binding of colchicine to tubulin” value [8] was “inhibited the binding of colchicine to tubulin”.
